Experimental data reported in paper PMC4222488, “Lipid droplet binding thalidomide analogs activate endoplasmic reticulum stress and suppress hepatocellular carcinoma in a chemically induced transgenic mouse model” (Lipids in Health and Disease, 2013).

Experiments:
[1] = test system: Hep3B; assay: MTS cytotoxicity assay (CellTiter 96 AQueous); type: cell-based; conditions: Homo sapiens, 48 h exposure
Protocol: (§1) Hep3B and HepG2 cells were grown in mixture of Dulbecco’s Modified Eagle Medium (D-MEM) (high glucose) (Gibco BRL, Carlsbad, CA, USA) and Nutrient Mixture F-12 Ham (Sigma, St. Louis, MO, USA) containing penicillin (50 IU/ml)–streptomycin ([…]) and 10% fetal bovine serum. For cytotoxicity assays, cells were seeded at a density of 10.000 cells per well into 96-well cell culture plates and maintained in a humidified atmosphere of 95% air and 5% CO2 for 12 h, then treated with different concentrations of Ac-2010 or Ac-915. MTS (3-(4,5-dimethylthiazol-2-yl)-5-(3-carboxymethoxy-phenyl)-2-(4-sulfophenyl)-2H-tetrazolium) assay was applied to drug treated and control (0.2% DMSO) cells with CellTiter 96® AQueous Assay (Promega, Madison, WI) according to the manufacturer’s protocol.
(§2) Their cytotoxic effects on human hepatocellular carcinoma cell lines (namely: HepG2, Hep3B and Huh7) were measured by using the MTS assay. […] Both Ac-915 and Ac-2010 induced cell death of liver cancer cells at sub- or low micromolar ranges.

[2] = test system: HepG2; assay: MTS cytotoxicity assay (CellTiter 96 AQueous); type: cell-based; conditions: Homo sapiens, 48 h exposure
Protocol: as §1, §2

[3] = test system: Huh7; assay: MTS cytotoxicity assay (CellTiter 96 AQueous); type: cell-based; conditions: Homo sapiens, Huh-7, 48 h exposure
Protocol: as §1, §2

[4] = test system: HepG2; assay: Real-time cytotoxicity, xCELLigence System (RT-CES); type: cell-based, human; conditions: for Cytotoxic effect in real time (cell index): HepG2, impedance monitored for 48 h
Protocol: (§3) Cytotoxicity and cell migration was monitored with the real-time cell electronic sensing, xCELLigence System (RT-CES, Acea-Roche). Cytotoxicity effects of Ac-2010 and Ac-915 compounds were tested on two different hepatocellular carcinoma cell lines (HepG2 and Hep3B). The RT-CES 96-well E-plate was coated with gelatin and then washed twice with PBS. Growth media (respective to cell types) were then gently dispensed into each well of the 96-well E-plate for background readings by the RT-CES system prior to addition of cell suspension at a density of 6000 cells/well. Devices containing the cell suspension were kept at 37° in a CO2 incubator for 8 h prior to treatment with different concentrations of Ac-2010 and Ac-915. Cell growth was monitored for 48 h by measurements of electrical impedance every 5 min.
(§4) Cytotoxic effects of Ac-915 and Ac-2010 compounds were also tested by the real-time cell electronic sensing, xCELLigence System (RT-CES) on two different hepatocellular carcinoma cell lines (Huh7, HepG2). This technology is based on proprietary microelectronic cell sensor arrays that are integrated in the bottom of the microtiter plates (96-well E-plate). When cells are cultured in a well, impedance is measured between sensor electrodes and the attached cells that act as insulators, which is converted into cell index number.

[5] = test system: Huh7; assay: as above; type: cell-based, human; conditions: Huh7, impedance monitored for 48 h
Protocol: as §3, §4

[6] = test system: Hep3B; assay: ROS determination (DCFDA fluorescence, FACS); type: cell-based, human
Protocol: ROS generation was determined by the increase in DCFDA (2',7'-dichlorodihydrofluorescein diacetate, Sigma) fluorescence after drug stimulation. HepG2 cells were washed, resuspended in 1% bovine serum albumin in Hanks buffered saline solution (BSA-HBSS) at 10^6 cells/mL and maintained at 37°C for analysis. Cells were treated with the indicated drugs (Ac-915, Ac-2010). DCFDA was added 60 min prior to harvest, at 2 μM final concentration and intracellular ROS production was measured by using a fluorescence activated cell sorter (Beckton Dickinson) with 20,000 events/test. All the other parameters and calculations were as described before.
Toxic compounds and numerous anticancer agents interfere with chaperone and ER functions leading to cellular stress which is manifested by elevated reactive oxygen species (ROS) and dramatic decrease in the anti-oxidant, glutathione (GSH) level. To investigate whether Ac-915 and Ac-2010 exert a pro-oxidative effect as determined earlier for other amino-trifluoro-phthalimides and “redox-reactive” thalidomide analogs, we measured the presence of ROS in human hepatocellular carcinoma cells (Hep3B) Figure 4a. To reveal the correlation of depletion of glutathione and ROS production of the analogs we determined the intracellular concentrations of glutathione. […]

[7] = test system: Hep3B; assay: Glutathione measurement (GSH-Glo); type: cell-based, human; conditions: treated Hep3B cells
Protocol: HepG2 cells (20000 cells per well in a 96-well plate) were incubated with Ac-915 in 50 μl PBS for 2 hours in a humidified atmosphere of 95% air and 5% CO2. 50 μl aliquots of prepared 2X GSH-GloTM Reagent (GSH-GloTM Glutathione assay; Promega, Madison, WI) were added to the wells and incubation continued at room temperature for 30 minutes. 100 μl of reconstituted Luciferin Detection Reagent (Promega) was added to each well and cells were incubated for 15 minutes further. Negative controls and blank reactions were also prepared. The amount of light produced was detected by luminometer.
Toxic compounds and numerous anticancer agents interfere with chaperone and ER functions leading to cellular stress which is manifested by elevated reactive oxygen species (ROS) and dramatic decrease in the anti-oxidant, glutathione (GSH) level. To investigate whether Ac-915 and Ac-2010 exert a pro-oxidative effect as determined earlier for other amino-trifluoro-phthalimides and “redox-reactive” thalidomide analogs, we measured the presence of ROS in human hepatocellular carcinoma cells (Hep3B) Figure 4a. To reveal the correlation of depletion of glutathione and ROS production of the analogs we determined the intracellular concentrations of glutathione. To determine whether Ac-915 and Ac-2010 affect intracellular GSH levels Hep3B cells were treated with compounds and GSH levels were recorded.

[8] = target: PDI (Homo sapiens, UniProt P07237); assay: Protein disulfide isomerase assay (catalytic reduction of insulin, turbidity at 650 nm); type: biochemical; parameters: purchased Sino Biological; conditions: insulin reduction in presence of 1 mM DTT, 25°C
Protocol: The assay is based on the measurement of the catalytic reduction of insulin as described by Lundstrom and Holmgren. In this assay, PDI facilitates the reduction of insulin in the presence of DTT. The reduced insulin chains aggregate, and the turbidity is monitored spectrophotometrically at 650 nm. The assay was performed in a 96-well plate format and a volume of 30 μl in the presence of 1 mM DTT, 1 μg PDI (Sino Biological), 0.14 mM bovine pancreas insulin (Sigma), and 0.2 mM EDTA in 100 mM potassium phosphate, pH 7.0. The progress of the reaction was monitored on a 96-well plate reader (Model 680 Microplate Reader, Bio-Rad Laboratories) at 650 nm for 95 minutes at 25°C. Ac-915, Ac-2010 or DMSO control was added prior to the addition of enzyme at the concentrations indicated. The nonenzymatic reduction of insulin by DTT was recorded in a control well without PDI. IC50 values of the compounds were calculated using nonlinear regression analysis.
These values are in good correlation with the KD values determined by direct biochemical interaction measurements using waveguide optical biosensors. The activity of PDI was based on the measurement of the catalytic reduction of insulin as described by Lundstrom and Holmgren. In this assay both analogs inhibited the PDI-induced reduction of insulin in the presence of dithiothreitol. […]

PDI, sequence (P07237 18-508): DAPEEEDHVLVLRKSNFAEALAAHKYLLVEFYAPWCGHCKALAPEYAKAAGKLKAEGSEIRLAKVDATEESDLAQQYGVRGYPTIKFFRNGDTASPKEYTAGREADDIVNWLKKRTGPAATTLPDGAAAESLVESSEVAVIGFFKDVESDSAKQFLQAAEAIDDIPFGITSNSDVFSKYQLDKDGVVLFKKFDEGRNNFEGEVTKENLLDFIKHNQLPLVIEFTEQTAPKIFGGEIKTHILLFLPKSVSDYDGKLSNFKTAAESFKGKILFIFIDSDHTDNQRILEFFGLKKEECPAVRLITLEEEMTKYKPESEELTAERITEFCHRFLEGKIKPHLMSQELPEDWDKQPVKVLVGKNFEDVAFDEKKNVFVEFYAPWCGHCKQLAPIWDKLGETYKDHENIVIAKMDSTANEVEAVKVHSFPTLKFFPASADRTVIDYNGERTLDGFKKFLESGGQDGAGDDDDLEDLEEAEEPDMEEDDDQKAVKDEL

| SMILES | EC50 [1] [nM] | EC50 [2] [nM] | EC50 [3] [nM] | Cytotoxicity at the migration-inhibiting concentration ([4]; 250 nM, HepG2 cells) | Cytotoxic effect in real time (cell index) [4] | Cytotoxic effect in real time (cell index) [5] | Intracellular ROS induction [6] | Intracellular GSH levels [7] | IC50 [8] [nM] |
| --- | --- | --- | --- | --- | --- | --- | --- | --- | --- |
| CC(C)c1cccc(C(C)C)c1N1C(=O)c2c(F)c(F)c(F)c(NC(=O)NC(=O)CCl)c2C1=O [Ac-2010] | 540 | 1050 | 940 | no cytotoxicity could be detected | micromolar cytotoxic effects | micromolar cytotoxic effects | induce intracellular reactive oxygen species | depleted intracellular GSH levels | ~9000 |
| CC(C)c1cccc(C(C)C)c1N1C(=O)c2c(F)c(F)c(F)c(N[C@@H]3C=CS(=O)(=O)C3)c2C1=O [Ac-915, 2-[2,6-bis(propane-2-yl)phenyl]-4-{[(3R)-1,1-dioxo-2,3-dihydro-thiophene-3-yl]amino}-5,6,7-trifluoro-2,3-dihydro-1H-isoindole-1,3-dione] | 760 | 1210 | 1660 |  | micromolar cytotoxic effects | micromolar cytotoxic effects | induce intracellular reactive oxygen species | depleted intracellular GSH levels | ~15000 |
